# Measurements published in ChEMBL document CHEMBL1201862, “PubChem BioAssay data set” (2004).
#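 1) Cells in 96-well plates. 2) Compound, 48 h, 5 concentrations. 3) Linear interpolation between surrounding doses. 4) Unreached endpoint = highest concentration. GI50 marks 50% less growth.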 Activity calls are given as the source filed them. No stated cut-off is given here; in the data, active = GI50 up to about 1.1 µM and inactive = higher.
# Tests used:
# Test in all cases: growth of human tumour cells (NCI), 48 h
# [1] = test system: MOLT-4
# [2] = test system: RPMI-8226
# [3] = test system: HOP-62
# [4] = test system: KM12
# [5] = test system: SK-MEL-2
# [6] = test system: A549
# [7] = test system: UACC-62
# [8] = test system: MDA-MB-231
# [9] = test system: U-251
# [10] = test system: Malme-3M
# [11] = test system: SF-539
# [12] = test system: MDA-N
# [13] = test system: SR
# [14] = test system: TK-10
# [15] = test system: 786-0
# [16] = test system: HCT-116
# [17] = test system: SF-295
# [18] = test system: A498
# [19] = test system: MDA-MB-435
# [20] = test system: EKVX
SMILES,GI50 [1],GI50 [2],GI50 [3],GI50 [4],GI50 [5],GI50 [6],GI50 [7],GI50 [8],GI50 [9],GI50 [10],GI50 [11],GI50 [12],GI50 [13],GI50 [14],GI50 [15],GI50 [16],GI50 [17],GI50 [18],GI50 [19],GI50 [20]
COc1cc(NCc2ccc3nc(N)nc(N)c3c2C)cc(OC)c1OC,0.025 µM (active),0.0562 µM (active),0.0286 µM (active),0.0478 µM (active),17.9 µM (inactive),0.0407 µM (active),0.025 µM (active),4.03 µM (inactive),0.0379 µM (active),1.55 µM (inactive),0.0269 µM (active),0.0002 µM (active),0.000359 µM (active),0.0105 µM (active),0.00106 µM (active),0.0352 µM (active),0.0308 µM (active),2.39 µM (inactive),0.0365 µM (active),–
Cc1nc(N)c(N2CCN([N+](=O)[O-])CC2)c(O)n1,> 100 µM (inactive),> 100 µM (inactive),> 100 µM (inactive),> 100 µM (inactive),> 100 µM (inactive),> 100 µM (inactive),–,> 100 µM (inactive),> 100 µM (inactive),> 100 µM (inactive),> 100 µM (inactive),> 100 µM (inactive),> 100 µM (inactive),> 100 µM (inactive),> 100 µM (inactive),> 100 µM (inactive),> 100 µM (inactive),> 100 µM (inactive),> 100 µM (inactive),> 100 µM (inactive)
O=C(CN1CCOCC1)c1ccc2c(c1)oc(=O)n2CCN1CCCCC1,> 100 µM (inactive),> 100 µM (inactive),> 100 µM (inactive),> 100 µM (inactive),> 100 µM (inactive),–,> 100 µM (inactive),> 100 µM (inactive),> 100 µM (inactive),> 100 µM (inactive),> 100 µM (inactive),> 100 µM (inactive),> 100 µM (inactive),> 100 µM (inactive),> 100 µM (inactive),> 100 µM (inactive),> 100 µM (inactive),> 100 µM (inactive),> 100 µM (inactive),82.2 µM (inactive)
N#Cc1c(NC(=S)NCc2ccccc2)sc2c1CCN(N1CCc3c(sc(NC(=S)NCc4ccccc4)c3C#N)C1)C2,> 100 µM (inactive),–,> 100 µM (inactive),> 100 µM (inactive),> 100 µM (inactive),> 100 µM (inactive),> 100 µM (inactive),> 100 µM (inactive),> 100 µM (inactive),> 100 µM (inactive),> 100 µM (inactive),> 100 µM (inactive),> 100 µM (inactive),> 100 µM (inactive),> 100 µM (inactive),> 100 µM (inactive),> 100 µM (inactive),> 100 µM (inactive),> 100 µM (inactive),> 100 µM (inactive)
CC(C)CC(=O)CC(O)C(Cl)(Cl)Cl (configuration not stated),> 100 µM (inactive),> 100 µM (inactive),> 100 µM (inactive),> 100 µM (inactive),> 100 µM (inactive),> 100 µM (inactive),> 100 µM (inactive),> 100 µM (inactive),> 100 µM (inactive),20.7 µM (inactive),–,> 100 µM (inactive),> 100 µM (inactive),> 100 µM (inactive),> 100 µM (inactive),> 100 µM (inactive),> 100 µM (inactive),> 100 µM (inactive),> 100 µM (inactive),> 100 µM (inactive)
O=C(c1cccs1)N(C(=S)OCc1ccccn1)c1ccccc1,45.7 µM (inactive),37.4 µM (inactive),–,84.9 µM (inactive),> 100 µM (inactive),–,> 100 µM (inactive),59.7 µM (inactive),92.5 µM (inactive),18.6 µM (inactive),38.5 µM (inactive),> 100 µM (inactive),> 100 µM (inactive),> 100 µM (inactive),> 100 µM (inactive),63.5 µM (inactive),40.4 µM (inactive),75.5 µM (inactive),> 100 µM (inactive),14.4 µM (inactive)
O=C1[C@@H](O)[C@@H]2CCCC[C@@]23CCCN13,> 100 µM (inactive),> 100 µM (inactive),> 100 µM (inactive),> 100 µM (inactive),> 100 µM (inactive),> 100 µM (inactive),> 100 µM (inactive),> 100 µM (inactive),> 100 µM (inactive),> 100 µM (inactive),–,> 100 µM (inactive),> 100 µM (inactive),> 100 µM (inactive),> 100 µM (inactive),> 100 µM (inactive),> 100 µM (inactive),> 100 µM (inactive),> 100 µM (inactive),> 100 µM (inactive)
